The results in this text go back to patent US11986532B2 (Arvinas Operations, Inc., priority 2021, dated 2024).

The target in the assay is T1, BCL6 (Homo sapiens, UniProt P41182).
T1 construct: endogenous in cells; host or cells: T47D breast cancer epithelial cells
Kind of assay: Immunofluorescence protocol for high content imaging of BCL6 (degradation) in T47D cells, 3 days compound treatment. The assay is classed as cell-based. The settings on record: for DC50: read-out: Mean DC50 (nM)* category; for Dmax: T47D, read-out: Mean Dmax (%)** category. The essentials:
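Read-out: high-content imaging of anti-BCL6 immunofluorescence (Alexa-488 secondary) with CellMask and Hoechst counterstains, 10×, 4 fields/well. Cells had 3 days of compound exposure at 37° C, 5% CO2, 11-point 3-fold series from a final top of 0.1 or 1 μM.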

For `CNC(=O)COc1cc2cc(Nc3nc(N4CCC(CN5CCC6(CC5)CN(c5ccc7c(c5OC)CN(C5CCC(=O)NC5=O)C7=O)C6(C)C)CC4)ncc3Cl)ccc2n(C(C)C)c1=O` (centres unmarked) [Compound 340, 2-{[6-({5-chloro-2-[4-({2-[2-(2,6-dioxopiperidin-3-yl)-4-methoxy-1-oxo-2,3-dihydro-1H-isoindol-5-yl]-1,1-dimethyl-2,7-diazaspiro [3.5]nonan-7-yl}methyl)piperidin-1-yl]pyrimidin-4-yl}amino)-2-oxo-1-(propan-2-yl)-1,2-dihydroquinolin-3-yl]oxy}-N-methylacetamide], the DC50 (in general, the concentration at which degradation of the target reaches its halfway point) fell in the range of 10 to 50 nM. With `CNC(=O)COc1cc2cc(Nc3nc(N4CCC(OC5CN([C@H]6CC[C@H](c7ccc8c(c7)C(=O)N(C7CCC(=O)NC7=O)C8=O)CC6)C5)CC4)ncc3Cl)ccc2n(C(C)C)c1=O` (some centres unmarked) [Compound 341, 2-{[6-({5-chloro-2-[4-({1-[(1r,4r)-4-[2-(2,6-dioxopiperidin-3-yl)-1,3-dioxo-2,3-dihydro-1H-isoindol-5-yl]cyclohexyl]azetidin-3-yl}oxy)piperidin-1-yl]pyrimidin-4-yl}amino)-2-oxo-1-(propan-2-yl)-1,2-dihydroquinolin-3-yl]oxy}-N-methylacetamide], the Dmax (in general, the greatest extent of degradation seen) lay within 50 to 70% and the DC50 lay within 10 to 50 nM.

Take `CNC(=O)COc1cc2cc(Nc3nc(N4CCN(C[C@H]5C[C@H](N6CCN(c7ccc8c(c7)CN(C7CCC(=O)NC7=O)C8=O)CC6)C5)CC4)ncc3Cl)ccc2n(C(C)C)c1=O` (some centres unmarked) [Compound 342, 2-[(6-{[5-chloro-2-(4-{[(1r,3r)-3-{4-[2-(2,6-dioxopiperidin-3-yl)-1-oxo-2,3-dihydro-1H-isoindol-5-yl]piperazin-1-yl}cyclobutyl]methyl}piperazin-1-yl)pyrimidin-4-yl]amino}-2-oxo-1-(propan-2-yl)-1,2-dihydroquinolin-3-yl)oxy]-N-methylacetamide]: the Dmax is at least 70% and the DC50 was under 10 nM.

In the case of `CNC(=O)COc1cc2cc(Nc3nc(N4CCC(O[C@H]5C[C@H](N6CCC7(CCN(c8ccc9c(c8)C(=O)N(C8CCC(=O)NC8=O)C9=O)CC7)CC6)C5)CC4)ncc3Cl)ccc2n(C(C)C)c1=O` (some centres unmarked) [Compound 343, 2-({6-[(5-chloro-2-{4-[(1r,3r)-3-{9-[2-(2,6-dioxopiperidin-3-yl)-1,3-dioxo-2,3-dihydro-1H-isoindol-5-yl]-3,9-diazaspiro [5.5]undecan-3-yl}cyclobutoxy]piperidin-1-yl}pyrimidin-4-yl)amino]-2-oxo-1-(propan-2-yl)-1,2-dihydroquinolin-3-yl}oxy)-N-methylacetamide], the Dmax was 50 to 70% and the DC50 is under 10 nM.

Turning to `CNC(=O)COc1cc2cc(Nc3nc(N4CCC(O[C@H]5C[C@H](N6CCC7(CN(c8ccc9c(c8)CN(C8CCC(=O)NC8=O)C9=O)C7)C6)C5)CC4)ncc3Cl)ccc2n(C(C)C)c1=O` (some centres unmarked) [Compound 344, 2-({6-[(5-chloro-2-{4-[(1r,3r)-3-{2-[2-(2,6-dioxopiperidin-3-yl)-1-oxo-2,3-dihydro-1H-isoindol-5-yl]-2,6-diazaspiro [3.4]octan-6-yl}cyclobutoxy]piperidin-1-yl}pyrimidin-4-yl)amino]-2-oxo-1-(propan-2-yl)-1,2-dihydroquinolin-3-yl}oxy)-N-methylacetamide], the Dmax was under 50% and the DC50 was under 10 nM.

`CNC(=O)COc1cc2cc(Nc3nc(N4CCC(O[C@H]5C[C@H](N6CCC7(CN(c8ccc9c(c8)C(=O)N(C8CCC(=O)NC8=O)C9)C7)C6)C5)CC4)ncc3Cl)ccc2n(C(C)C)c1=O` (some centres unmarked) [Compound 345, 2-({6-[(5-chloro-2-{4-[(1r,3r)-3-{2-[2-(2,6-dioxopiperidin-3-yl)-3-oxo-2,3-dihydro-1H-isoindol-5-yl]-2,6-diazaspiro [3.4]octan-6-yl}cyclobutoxy]piperidin-1-yl}pyrimidin-4-yl)amino]-2-oxo-1-(propan-2-yl)-1,2-dihydroquinolin-3-yl}oxy)-N-methylacetamide]: the greatest degradation seen (Dmax) is at least 70% and the DC50 is under 10 nM.
